Results on five compounds are retold here after patent publication US12458604B2, “Methods of lipid nanoparticle manufacture and compositions derived therefrom” (George Mason Research Foundation, Inc., priority 2020, dated 2025).

Data set [1] in a line: pKa of the ionizable lipid measured in the LNP (TNS pKa). It counts as physicochemical. To be noted: for pKa: lipid nanoparticle (LNP) containing the ionizable lipid; for DpKa: ACD pKa versus TNS pKa. The source says:
In some embodiments, the “LNP lipids” are MC3, DLin, and/or KC2 as shown below. The table highlights the pKa of the ionizable lipid measured in the LNP (TNS pKa) versus the pKa in aqueous medium predicated by a commercial software ACDLabs Percepta.:
In one embodiment, the amount of nucleic acid is represented by the LNP mole ratio of the amine on the ionizable lipid to the phosphate groups on the nucleic acid backbone and is typically about 3 to about 6. In one embodiment, the pKa of the LNP is in the about 6 to about 7 range corresponding to the pH in the early endosome. A link between the pKa of ionizable lipid in the LNP and gene silencing efficiency has shown that an LNP pKa in the range of about 6 to about 7 produced more silencing for the ionizable lipid DLinDMA and was associated with promoting lipid structures that could disrupt the membrane of the endosome. The pKa of the LNP may be measured using the pH-dependence of fluorescence enhancement of the anionic dye TNS.

A further data set deals with HEK293 cells. As to the kind of experiment: Firefly Luciferase Assay for mRNA Delivery Efficiency. It counts as cell-based. To be noted: for potency when sodium acetate concentration was reduced from 60 mM to 25 mM / potency when mixed at the higher concentration 1.5 mg/ml vs the lower concentration 0.25 mg/ml: Example 12; for potency when mixed at the higher concentration 1.5 mg/ml vs the lower concentration 0.25 mg/ml / LNP potency at the higher versus lower mixing concentration: same dose; for LNP potency at the higher versus lower mixing concentration: NP 4, sodium acetate pH 4. On the procedure: Summary: LNPs were formulated using total lipid concentration of 6 to 27 mM comprised of KC2/DSPC/Cholesterol/PEG-DMG (50:10:38.5:1.5 mol %). Each one of the lipids were solubilized in ethanol until a clear solution was observed. The four lipids were combined to get 50 mM total lipid concentration (25/5/19.25/0.75 mM respectively), then serial dilutions were done to reach 6 to 27 mM. […] Purified mRNA was ethanol precipitated, washed and resuspended in nuclease-free water to reach concentrations of 1 mg/mL. […] 16 μl Lipid Mix and 341 mRNA solution were mixed on Setting 3 and ejected into 48 μl 1×DPBS pH 7.4. The formed LNPS were then diluted into an additional 96 μl 1×DPBS pH 7.4. LNPs were then dialyzed against 1×DPBS pH 7.4 for 4×1 hr. LNPs were then diluted so that 32 ul contained 200 ng and 12K HEK293 cells were transfected with the same 200 ng dose but manufactured at different concentrations in the microfluidic mixer.
A. Firefly Luciferase Assay for mRNA Delivery Efficiency. After 24 hours of transfection, transfected cells were conditioned to room temperature for 30 minutes prior the Firefly Luciferase Assay. Quantilum Recombinant Luciferase standard curve was prepared in 10% EMEM in 5-fold serial dilutions. 50 ul of each standard point from the range of 3.9×10^−5 mg/ml to 4.88×10^−3 mg/ml were included in the microplate as a positive enzyme activity control (data not shown) to maintain a linearity of 10^7 RLU/mg/ml. The ONE-Glo substrate, previously conditioned to room temperature for at least 4 hours, was added to each untransfected, transfected and Quantilum wells in a ratio 1:1. Assay plates were incubated for 3 minutes in darkness and immediately introduced into the Cytation 5 Cell Imaging Multi-Mode Reader (Biotek) to read luminescence.
Each one of the lipids were solubilized in ethanol until a clear solution was observed. […] To prepare 75 mM total lipid concentration (37.5/7.5/28.88/1.13 mM respectively), KC2/DL-ADDE-C2C2-PipZ/BODD-ADDE-C2C4-PipZ and Cholesterol were mixed first, same for DSPC and PEG to solubilize both solutions in ethanol before combining them to reach 75 mM. […] Purified mRNA was ethanol precipitated, washed and resuspended in nuclease-free water to reach concentrations of 4.4 mg/ml. […] 16 μl Lipid Mix and 341 mRNA solution were mixed on Setting 3 and ejected into 48 μl 1×DPBS pH 7.4. The formed LNPS were then diluted into an additional 96 μl 1×DPBS pH 7.4. LNPs were then dialyzed against 1×DPBS pH 7.4 for 4×1 hr. LNPs were then diluted so that 32 ul contained 25-200 ng and 12K HEK293 cells were transfected with the same dose but manufactured at different concentrations in the microfluidic mixer.

For a further data set, the system named is mice. Description: In vivo and ex vivo Firefly Luciferase expression (IVIS). To be noted: for higher potency in vivo of buffer-free assembly compared to using a buffer: by IVIS, high lipid and mRNA mixing concentrations, 0.25 protons per ionizable lipid, NP 4. On the procedure:
C: In vivo Firefly Luciferase expression in IM administration. 5 ug of encapsulated mRNA were injected in mice in intramuscular (I.M.), intradermal (ID.) and intravenous (I.V.) injections. ROIs were calculated using the IVIS system. Imaging were performed at 4 and 20 hours.
C: In vivo Firefly Luciferase expression in IM administration. 0.5-5 ug of total mRNA was injected in mice in intramuscular (I.M.) injections. Luciferin was administrated intraperitoneally at 4 hours post-injection and luciferase expression monitored by live animal imaging at 4 and 24 hours. ROIs were calculated using the IVIS system.
D: In vivo and ex vivo Firefly Luciferase expression in IM administration for LNPs mixed at 1.5 mg/ml. 1 ug of total mRNA was injected in mice in intramuscular (I.M.) injections. Luciferin was administrated intraperitoneally at 4 hours post-injection and luciferase expression monitored by live animal imaging at 4 hours. ROIs were calculated using the IVIS system. For Ex Vivo, organs were extracted and imaged immediately after In Vivo imaging.
E: In vivo and ex vivo Firefly Luciferase expression in IV administration for LNPs mixed at 1.5 mg/ml. 1 ug of total mRNA was injected in mice in […] (I.V.) injections. Luciferin was administrated intraperitoneally at 4 hours post-injection and luciferase expression monitored by live animal imaging at 4 hours. ROIs were calculated using the IVIS system. For Ex Vivo, organs were extracted and imaged immediately after In Vivo imaging.

The next data set relates to SARS-CoV-2. Description: In vivo protection against viral challenge. Conditions: SARS-CoV-2 immunogen mRNA, mice, I.M. On the procedure:
Summary: LNPs were formulated using total lipid concentration of 10-75 mM comprised of several ionizable/DSPC/Cholesterol/PEG-DMG (47-50:10-13:37-38.5:1.5-2 mol %). Each one of the lipids were solubilized in ethanol until a clear solution was observed. The four lipids were combined to get 75 mM total lipid concentration then serial dilutions were done to reach 10 mM. Codon optimized 2019-nCoV Wuhan S-2P (Covid) sequence was cloned into an mRNA plasmid (optimized 3′ and 5′ UTR and containing a 101 polyA tail (SEQ ID NO: 4)) for co-transcriptional capping, in vitro transcribed using N1 methyl pseudouridine modified nucleoside and cellulose purified to remove dsRNA. Purified mRNA was ethanol precipitated, washed and resuspended in nuclease-free water to reach concentrations of 5.5 mg/ml. […] 16 μl Lipid Mix and 32 μl mRNA solution were mixed on Setting 3 and ejected into 48 μl 1×DPBS pH 7.4. The formed LNPS were then diluted into an additional 96 μl 1×DPBS pH 7.4. LNPs were then dialyzed against 1×DPBS pH 7.4 for 4×1 hr. LNPs were then diluted so that 32 ul contained 25-200 ng and 12K HEK293 cells were transfected with the same dose but manufactured at different concentrations in the microfluidic mixer.
A: In vivo protection against viral challenge—Survival proportion, Weight and Temperature in Challenge model. […]

The conditions of data set [2]: pKa of the ionizable lipid measured in the LNP; published ionizable lipids; cited from earlier work.

`CCCCC/C=C\C/C=C\CCCCCCCCOC(=O)CCN(CCC(=O)OCCCCCCCC/C=C\C/C=C\CCCCC)CCN1CCN(C)CC1` (racemic) [DL-C2/C2-PipZ] returned a pKa in data set [1] of roughly 7.5. In addition, in the data set on HEK293 cells, the “potency when sodium acetate concentration was reduced from 60 mM to 25 mM” value was “did not show either effect” and the “potency when mixed at the higher concentration 1.5 mg/ml vs the lower concentration 0.25 mg/ml” value (“potency … vs the lower concentration 0.25 mg/ml” below) is given as “did not”.

The compound `CCCCCCCCC(CCCCCCCC)COC(=O)CCN(CCCCN1CCN(C)CC1)CCC(=O)OCC(CCCCCCCC)CCCCCCCC` [BOD-C2/C4-PipZ] yielded a pKa in data set [1] of roughly 6.5. For the same compound, in the data set on HEK293 cells, the “potency when sodium acetate concentration was reduced from 60 mM to 25 mM” value is “increased potency” and the “potency … vs the lower concentration 0.25 mg/ml” value is recorded as “large increase in potency”. Besides, in the data set on HEK293 cells (Example 13, 1.5 mg/ml mRNA in 25 mM NaOAc), the “potency on increasing pH from 4 to 5” value is “increases potency”. The “LNP potency at the higher versus lower mixing concentration” value with HEK293 cells (in vitro) is “LNP potency increases”. For the same compound, in the data set with mice (IM administration), the “higher potency in vivo of buffer-free assembly compared to using a buffer” value is 3 ×. The “higher potency in vivo of buffer-free assembly compared to using a buffer” value in the data set with mice (IV administration) turned out to be 3 ×. Besides, in the data set with SARS-CoV-2 (0.25 ug), the “Protective against lethal challenge” value is 100%.

The compound `CCCCC/C=C\C/C=C\CCCCCCCCOCC(CN(C)C)OCCCCCCCC/C=C\C/C=C\CCCCC` (centres unmarked) [DLin] had a DpKa in data set [1] of 1.8.

In data set [1], `CCCCC/C=C\C/C=C\CCCCCCCCC1(CCCCCCCC/C=C\C/C=C\CCCCC)OCC(CCN(C)C)O1` (centres unmarked) [KC2] had a DpKa of 2.6 and a pKa of roughly 6.5. For the same compound, the “LNP potency increase when reducing sodium acetate from 50 mM to 25 mM” value in the data set with HEK293 cells (1.5 mg/ml of mRNA, pH 4, NP 4) amounted to 44%. In the data set on HEK293 cells, the “potency when sodium acetate concentration was reduced from 60 mM to 25 mM” value is listed as “increased potency” and the “potency … vs the lower concentration 0.25 mg/ml” value is given as “large increase in potency”. For the same compound, in the data set on HEK293 cells (in vitro, KC2/DSPC/Cholesterol/PEG-DMG LNPs, NP 4), the “delivery efficiency at the same dose with increased mixing concentration” value was “increased delivery efficiency at the same dose only at the lowest NaOAc concentration of 50 mM”. The “LNP potency at the higher versus lower mixing concentration” value in the data set with HEK293 cells (in vitro) was “LNP potency increases”. Moreover, the “LNP potency increase when reducing sodium acetate concentration from 25 mM to 10 mM” value with HEK293 cells (mRNA concentration of 0.25 mg/ml, pH 4, NP 4) was determined as 2.2 ×. Also, in the data set with mice (in vivo, 5 ug of encapsulated mRNA, lipids 5 to 100 mM, mRNA 0.1 to 2 mg/ml), the “delivery efficiency at the same dose with increased mixing concentration” value is “increased delivery efficiency”. Further, in data set [2], the “TNS pKa” value was 6.7.

In data set [1], `CCCCC/C=C\C/C=C\CCCCCCCCC(CCCCCCCC/C=C\C/C=C\CCCCC)OC(=O)CCCN(C)C` [MC3] yielded a DpKa of 3 and a pKa of roughly 6.5. In addition, in the data set on HEK293 cells, the “potency when sodium acetate concentration was reduced from 60 mM to 25 mM” value is given as “increased potency” and the “potency … vs the lower concentration 0.25 mg/ml” value was “large increase in potency”. Moreover, the “LNP potency at the higher versus lower mixing concentration” value in the data set with HEK293 cells (in vitro) is “LNP potency increases”. The “Protective against lethal challenge” value with SARS-CoV-2 (0.5 ug) came to 100%. Further, in data set [2], the “TNS pKa” value is given as 6.4.

One may read the pKa as the pH at which an ionisable group is half protonated.
